Test results: patent US9815788B2, “Anti-angiogenic compounds” (University College Dublin National University of Ireland, …, priority 2012, dated 2017)
Where a name gives a salt, the structure may show the parent alone.

Columns and labels:
Assay type in all cases: cell-based, human
[1] = test system: OE33P radio-sensitive oesophageal adenocarcinoma cells; assay: Quantification of glycolysis (ECAR, Seahorse), OE33P; conditions: 10 μM, 24 hours
Method: (§1) OE33P radio-sensitive and OE33R radio-resistant oesophageal adenocarcinoma cells were used to test the effects of compounds 11B HCl, 11B CC11 HCl, 11B CC16 HCl, 11B 471 and 11B 268 on glycolysis. Cells were maintained in RPMI media supplemented with 10% foetal calf serum, penicillin (100 U/ml) and streptomycin (100 μg/ml). A total of 11,000 or 13,000 cells, in 100 μl media, were seeded per well in 24 well plates and left to incubate for 24 hours, with an additional 150 μl media added after 5 hours. The media was replaced with solutions containing 10 μM of 11B HCl, 11B CC1 HCl, 11B CC16 HCl, 11B 471, 11B 268 or fresh media as a control. Each drug had 6 replicates. After 24 hours of treatment, media was replaced with modified DMEM supplemented with 0.5 mM glucose. Rates of glycolysis were determined using Seahorse Biosciences metabolism technology. The media was disposed and the cells washed with PBS. The cells were fixed with 1% glutaraldehyde for 15 minutes and then stained with crystal violet for 30 minutes. The plates were blotted and dried overnight. The cells were resuspended with 1% TritonX-100 and shaken for 15 minutes. The absorbance was read on a spectrophotometer at 590 nm. Rates of glycolysis were then normalised to cell number.
as §1, with “radiosensitive” for “radio-sensitive and OE33R radio-resistant”, “the compound 11B_ZHCl” for “compounds 11B HCl, 11B CC11 HCl, 11B CC16 HCl, 11B 471 and 11B 268”, “11,000” for “11,000 or 13,000”, “11B_ZHCl” for “11B HCl, 11B CC1 HCl, 11B CC16 HCl, 11B 471, 11B 268”, “treatment” for “drug”, “number. No changes in ECAR were detected in OE33R treated cells.” for “number.”

[2] = test system: RAD51L3, MMS19, SMUG1, PARP1 and MLH1 in OE33R cells; assay: Gene expression of DNA repair proteins (qPCR), OE33R; conditions: 10 μM, 24 hours, reduction of RAD51L3, MMS19, PARP1 and MLH1
Method: (§2) O[…] radiosensitive and O[…] radioresistant oesophageal adenocarcinoma cells were used to test the effects of the above compounds on the gene expression of DNA repair proteins. Cells were maintained in RPMI media supplemented with 10% foetal calf serum, penicillin (100 U/ml) and streptomycin (100 μg/ml). Cells were seeded in 6 well plates and left to incubate for 24 hours. Cells were treated 10 μM of the above compounds or fresh media as a control. After 24 hours of treatment, RNA and cDNA was isolated and qPCR performed using primer probes to the following primer probes to RAD51L3, MMS19, SMUG1, PARP1 and MLH1. O[…] radiosensitive and O[…] radioresistant oesophageal adenocarcinoma cells were used to test the effects of compounds 11B HCl, 11B_CC11_HCl and 11B_Z_HCL on the gene expression of DNA repair proteins. Cells were maintained in RPMI media supplemented with 10% foetal calf serum, penicillin (100 U/ml) and streptomycin (100 μg/ml). Cells were seeded in 6 well plates and left to incubate for 24 hours. Cells were treated 10 μM of the above compounds or fresh media as a control. After 24 hours of treatment, RNA and cDNA was isolated and qPCR performed using primer probes to the following primer probes to RAD51L3, MMS19, SMUG1, PARP1 and MLH1.

[3] = test system: RAD51L3, MMS19, SMUG1, PARP1 and MLH1 in OE33P cells; assay: Gene expression of DNA repair proteins (qPCR), OE33P; conditions: 10 μM, 24 hours, reductions of RAD51L3, MMS19, SMUG1 and PARP1
Method: as §2

[4] = test system: OE33R radio-resistant oesophageal adenocarcinoma cells; assay: Cell number after 24 hours drug treatment (crystal violet absorbance), OE33R; conditions: 10 μM
Method: OE33P radio-sensitive and OE33R radio-resistant oesophageal adenocarcinoma cells were used to test the effects of the compounds 11B HCl, […], 11B CC16 HCl, 11B 471 and 11B 268 on cell number. Cells were maintained in RPMI media supplemented with 10% foetal calf serum, penicillin (100 U/ml) and streptomycin (100 gig/ml). A total of 11.000 or 13,000 cells, in 100 μl media, were seeded per well in 24 well plates and left to incubate for 24 hours, with an additional 150 μl media added after 5 hours. The media was replaced with solutions containing 10 μM of 11B HCl, 11B CC11 HCl, 11B CC16 HCl, 11B 471, 11B 268 or fresh media as a control. Each drug had 6 replicates. After 24 hours of treatment, the cells were fixed with 1% glutaraldehyde for 15 minutes and then stained with crystal violet for 30 minutes. The plates were blotted and dried overnight. The cells were resuspended with 1% TritonX-100 and shaken for 15 minutes. The absorbance was read on a spectrophotometer at 590 nm.
OE33P radiosensitive and OE33R radioresistant cells were used to test the effects of the compound 11B_Z_HCl on toxicity. Cells were maintained in RPMI media supplemented with 10% foetal calf serum, penicillin (100 U/ml) and streptomycin (100 μg/ml). A total of 11,000 cells, in 100 μl media, were seeded per well in 24 well plates and left to incubate for 24 hours, with an additional 150 μl media added after 5 hours. The media was replaced with solutions containing 10 μM of 11B_Z_HCl or fresh media as a control. Each treatment had 6 replicates. After 24 hours of treatment, the cells were fixed with 1% glutaraldehyde for 15 minutes and then stained with crystal violet for 30 minutes. The plates were blotted and dried overnight. The cells were resuspended with 1% TritonX-100 and shaken for 15 minutes. The absorbance was read on a spectrophotometer at 590 nm.

Structure (SMILES): Cl.Oc1ccccc1/C=C\c1ccc2ccccc2n1 [Compound 11B_Z_HCl, (Z)-2-(2-(Quinolin-2-yl)vinyl) phenol HCl salt]
- extracellular acidification rate (ECAR), a measure of glycolysis ([1]; HCl salt): significantly reduces
- extracellular acidification rate (ECAR), a measure of glycolysis ([1]; listed as 11B_ZHCl, HCl salt): Significantly Reduces
- expression of DNA repair genes [2]: Reduction
- expression of DNA repair genes [3]: Reduction
- cell number, measured by % absorbance ([4]; HCl salt): did not significantly reduce cell number

Structure (SMILES): Oc1ccccc1/C=C/c1ccc2ccccc2n1 [11B HCl]
- extracellular acidification rate (ECAR), a measure of glycolysis [1]: significantly reduce
- expression of DNA repair genes [2]: Reduction
- expression of DNA repair genes [3]: Reduction
- cell number, measured by % absorbance [4]: did not significantly reduce cell number

Structure (SMILES): C/C(=C\c1ccccc1O)c1ccc2ccccc2n1.Cl [Compound 11B_CC11_HCl, (E)-2-(2-Quinolin-2-yl-propenyl)-phenol HCl salt]
- extracellular acidification rate (ECAR), a measure of glycolysis [1]: significantly reduce
- expression of DNA repair genes [2]: Reduction
- expression of DNA repair genes [3]: Reduction
- cell number, measured by % absorbance [4]: did not significantly reduce cell number
